Laboratory results from patent US6613756B2 (Wisconsin Alumni Research Foundation, priority 2000, dated 2003).
Counter-ions that a name gives are not always drawn.

Key:
collagenase = details: cited from earlier work
[1] = test system: DA rats with MOG-induced EAE; test: High-dose MOG (100 μg rMOG/IFA) immunization paradigm of EAE; type: in vivo, rat
Experimental: Statistical analysis of clinical scores was performed by averaging them over all times of the treatment and subtracting the first 11 days after immunization when clinical score in all groups was 0. Statistical significance was established using a repeated measures analysis where clinical score between treatments was compared from day 12 to 42 building in an auto-correlation of the error term. ANOVA and Student's t-test were used to establish the difference between experimental groups in all other examined parameters. […]

naive DA rats = test: Minocycline treatment of naive, non-immunized animals; type: in vivo, rat
Excerpt: In the high-dose MOG immunization paradigm rats were separated into two groups: EAE^pbs-phosphate-buffered saline (PBS)-treated rats (n=5) from day 1 post-immunization and EAE^tr-minocycline-treated rats (n=6) from day 1 post-immunization.
(§1) Matched unimmunized, naive groups were also included: N^pbs-PBS-treated animals (n=10), N^tr1-minocycline-treated from experimental day 10 (n=10), N^tr2-minocycline-treated from experimental day 13 (n=5), N^tr3 minocycline-treated from experimental day 13, with twice daily injections during the first two days followed by single injection throughout the remaining treatment period (n=5).

[2] = test system: DA rats with MOG-induced EAE; test: Low-dose MOG (10 μg rMOG/CFA) immunization paradigm of relapsing remitting EAE; type: in vivo, rat; details: for % Of Dorsal Column Demyelinated / % Of Mortality / Mean Cumulative Score / % Of Incidence: 10 μg rMOG/CFA
Experimental: Experiments were performed on 6-8 week old female DA rats obtained from Harlan-Sprague Dawley, Indianapolis, Ind. or Harlan-Winkelmann, Germany. During the observation period, rats were housed in a light- and temperature-controlled environment and were permitted free access to food and water. The recombinant extracellular immunogobulin domain of MOG was expressed in E. coli and purified as described previously (Raine, C. S., et al., Ann. Neurol. 46:144-160, 1999).
Rats were immunized sub-cutaneously (s.c.) at the base of the tail with either 10 μg MOG in complete Freund's adjuvant (CFA) or 100 μg MOG emulsified in incomplete Freund's adjuvant (IFA) (Difco, Detroit, Mich.) in a total volume of 100 μl. Animals were weighed and examined daily for clinical signs of EAE that was scored on the following scale: 0.5, partial loss of tail tone; 1, complete tail atony; 2, hind limb weakness; 3, hind limb paralysis; 4, moribund; 5, dead. […]
as §1
Animals were deeply anesthetized with pentobarbital and perfused transcardially with Ringer's followed by 4% paraformaldehyde. The brain and spinal cord were removed and prepared for paraffin and epon embedding or cryo-protected in 30% sucrose. Paraffin sections were used to assess the degree of inflammation (hematoxylin and eosin) and one-micron semithin sections were used to estimate the demyelination in the spinal cord (toluidine blue). Areas with inflammatory infiltrates or demyelinating lesions in the dorsal funiculus of spinal cord were scored using a CCD72 camera to collect digital images that were analyzed with the Microcomputer Imaging Device (MCID) software from Imaging Research Inc. (St. Catherines, Ontario). Measurements for cell infiltrates and demyelination were expressed as percent of the total white matter area of the dorsal funiculus. To determine the profile of inflammatory infiltrates within lesions 10 μm cryostat sections of thoracic-lumbar spinal cord were immunolabelled for MHC II (Harlan Sera-Lab), CR3, CD45 (Serotec), GFAP (Dako), CD3 (PharMingen) and MMP-2 (Oncogne Research Products) protein expression. Primary antibodies were detected using a biotinylated secondary antibodies and the avidin: biotin enzyme complex technique (Vector Laboratories). Areas with immunolabelling-defined inflammatory infiltrates were scored using a semi-quantitative scale: 0-no inflammatory infiltrates or lesions, 1-25%, 2-50%, 3-75%, and 4-100% of the dorsal funiculus.
Statistical analysis of clinical scores was performed by averaging them over all times of the treatment and subtracting the first 11 days after immunization when clinical score in all groups was 0. Statistical significance was established using a repeated measures analysis where clinical score between treatments was compared from day 12 to 42 building in an auto-correlation of the error term. ANOVA and Student's t-test were used to establish the difference between experimental groups in all other examined parameters. Statistically significant differences were presented as: * for P<0.05, ** for P<0.01, and *** for P<0.001.

[3] = test system: MOG-specific T-cell response; test: MOG-specific T-cell response of draining lymph node cells from treated rats; type: cell-based, rat; details: high-dose MOG; minocycline day 1 to 10; 10 d.p.i.
Experimental: Draining lymph nodes and spleens were removed 10 days post-immunization (d.p.i.) and proliferation assays performed in flat-bottomed 96-well tissue culture plates in a total volume of 200 μl using either 5×10^5 lymph node or spleen cells (Raine, C. S., et al., supra, 1999). Antigen specific proliferation was assessed by the incorporation of ^3H-thymidine (10 μCi/well) during the final 18 hours of a 72 hour culture period using a Packard Matrix 96 Direct Beta counter.

[4] = minocycline from day 10 (EAEtr1)
[5] = minocycline from day of onset (EAEtr2)
[6] = minocycline from day of onset, double-dose (EAEtr3)

Compound	anti-collagenase activity (collagenase)	% Of Incidence ([1]; minocycline 45 mg/kg i.p. daily from day 1, terminated day 20)	% Of Dorsal Column Demyelinated ([1]; minocycline from day 1)	Mean Cumulative Score ([1]; minocycline from day 1, sum of daily scores of all animals / number of animals)	% Of Mortality ([1]; minocycline from day 1, terminated day 20)	adverse effects (naive DA rats)	% Of Dorsal Column Demyelinated [2, 4]	% Of Mortality [2, 4]	Mean Cumulative Score [2, 4]	% Of Incidence ([2]; minocycline from day 10 (EAEtr1), 42 days)	% Of Dorsal Column Demyelinated [2, 5]	% Of Incidence [2, 5]	% Of Mortality [2, 5]	Mean Cumulative Score [2, 5]	% Of Dorsal Column Demyelinated [2, 6]	% Of Mortality [2, 6]	Mean Cumulative Score [2, 6]	% Of Incidence ([2]; minocycline from day of onset, double-dose first two days (EAEtr3))	maximal clinical disease grade reached ([2]; twice daily for first two days from onset, then once daily (EAEtr3))	antigen specific proliferative response of draining lymph node cells [3]
CC1(O)c2cccc(O)c2C(=O)C2=C(O)C3(O)C(=O)C(C(N)=O)=C(O)CC3CC21 (stereo not drawn) [CMT-1, 4-dedimethylamino tetracycline]	persistent anti-collagenase activity	–	–	–	–	–	–	–	–	–	–	–	–	–	–	–	–	–	–	–
CN(C)c1ccc(O)c2c1C[C@H]1C[C@H]3[C@H](N(C)C)C(O)=C(C(N)=O)C(=O)[C@@]3(O)C(O)=C1C2=O [Minocycline, Minocycline hydrochloride]	–	80%	6.25%	5.5	0%	not found to induce any adverse effects	5.94%	0%	7.43	40%	0.12%	100%	0%	26.25	0.04%	0%	10.12	100%	≤ 1	no significant effect
NC(=O)C1=C(O)C[C@@H]2C[C@@H]3Cc4cccc(O)c4C(=O)C3=C(O)[C@]2(O)C1=O [CMT-3, 6-demethyl 6-deoxy 4-dedimethylamino tetracycline]	persistent anti-collagenase activity	–	–	–	–	–	–	–	–	–	–	–	–	–	–	–	–	–	–	–
